# “And” between values parts separate entries of the source, which are not always exact repeats. Equal values may be shown once. Where a name gives a salt, the structure may show the parent alone. The source made the active and inactive calls.
# Columns and labels:
# [1] = growth suppression of PTEN-null colon cells, dose response, cell-based, HCT116 PTEN knockout (AID 1047); type: functional;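 also: HCT116 colon tumor cells with PTEN knocked out; cells exposed to compound for 60 hours before readout; potency for loss of cell viability measured by luminescence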
# [2] = growth suppression of beta-catenin-knockout colon cells, dose response, cell-based, HCT116, human colon tumor (AID 1045); type: functional;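 also: HCT116 colon tumor cells with beta catenin knocked out; cells exposed to compound for 60 hours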
# [3] = Luminescence Cell-Based Dose Retest to Confirm Inhibitors of Cancer Stem Cells. [Related pubchem assays (depositor defined):AID2717, AID2721]; type: functional; settings: Homo sapiens
# [4] = microbe, parasite or virus in culture; type: functional; settings: Mycobacterium tuberculosis
# Protein skinhead-1 = molecular target: T1, Protein skinhead-1 (Caenorhabditis elegans, UniProt P34707); type: functional
# T1 sequence (P34707 whole entry): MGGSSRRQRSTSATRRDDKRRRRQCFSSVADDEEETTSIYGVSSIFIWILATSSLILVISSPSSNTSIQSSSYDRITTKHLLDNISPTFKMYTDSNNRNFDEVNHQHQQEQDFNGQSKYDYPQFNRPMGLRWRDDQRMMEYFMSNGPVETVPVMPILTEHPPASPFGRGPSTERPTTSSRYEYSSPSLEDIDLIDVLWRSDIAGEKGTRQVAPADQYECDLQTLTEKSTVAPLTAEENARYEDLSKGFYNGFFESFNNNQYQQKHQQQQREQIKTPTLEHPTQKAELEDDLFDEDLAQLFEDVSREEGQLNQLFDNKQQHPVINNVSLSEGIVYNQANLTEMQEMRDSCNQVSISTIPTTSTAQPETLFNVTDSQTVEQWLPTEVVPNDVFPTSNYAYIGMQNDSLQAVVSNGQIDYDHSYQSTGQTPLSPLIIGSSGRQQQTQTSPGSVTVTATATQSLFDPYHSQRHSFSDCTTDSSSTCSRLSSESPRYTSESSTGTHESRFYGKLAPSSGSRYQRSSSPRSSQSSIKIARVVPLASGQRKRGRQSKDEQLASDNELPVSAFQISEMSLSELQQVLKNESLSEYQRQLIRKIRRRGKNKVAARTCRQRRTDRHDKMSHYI
# Cytochrome P450 3A4 = Cytochrome P450 3A4 (Homo sapiens, UniProt P08684); settings: Potency;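 also: confirmatory qHTS run detecting inhibitors and substrates of CYP3A4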
# Chain of Cytochrome P450 3A4 (P08684 whole entry): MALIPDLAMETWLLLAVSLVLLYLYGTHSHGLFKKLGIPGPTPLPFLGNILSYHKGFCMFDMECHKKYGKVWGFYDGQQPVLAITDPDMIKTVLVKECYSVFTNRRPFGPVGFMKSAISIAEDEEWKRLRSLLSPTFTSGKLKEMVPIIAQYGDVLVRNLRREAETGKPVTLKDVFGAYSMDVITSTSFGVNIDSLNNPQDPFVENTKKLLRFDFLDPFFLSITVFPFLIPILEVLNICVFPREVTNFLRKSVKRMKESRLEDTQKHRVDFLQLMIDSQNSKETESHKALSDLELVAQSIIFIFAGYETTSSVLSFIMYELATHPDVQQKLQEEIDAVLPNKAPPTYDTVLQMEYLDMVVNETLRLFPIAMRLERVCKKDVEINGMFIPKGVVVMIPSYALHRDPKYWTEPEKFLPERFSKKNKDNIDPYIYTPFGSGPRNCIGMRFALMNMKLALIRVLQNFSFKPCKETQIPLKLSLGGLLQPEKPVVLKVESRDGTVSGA
# cells [5] = type: functional, cell-based
# cells [6] = type: functional, cell-based; remark: listed apart in the source
# cells [7] = type: functional
# [8] = inhibitors of HIV Env-driven cell fusion, dose response, cherry-pick (AID 652057); type: functional, cell-based
# [9] = inhibitors of clade B AD8 Env fusion, dose response, cell-based, cherry-pick (AID 652062); type: functional;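 also: luciferase signal from cell-cell fusion driven by HIV-1 clade B AD8 Env; potency is for inhibitors of fusion seen as a drop in luminescence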
# INS1 = assay: beta cell apoptosis inhibitors, cytokine rescue, dose response, luminescence, retest (AID 449756); type: functional, cell-based; settings: Rattus norvegicus;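 also: cell death triggered by IL-1 beta plus TNF-alpha plus IFN-gamma mixture; protective hits raise ATP signal compared with cytokine alone wells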
# Streptokinase A = molecular target: T2, Streptokinase A (Streptococcus pyogenes serotype M1, UniProt P10520); assay: S. pyogenes streptokinase expression inhibitors, potency, dose response, plasminogen activation absorbance, OD405 (AID 1914); type: functional, Streptococcus pyogenes M1 GAS;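 also: secreted streptokinase activity via plasminogen activation per viability signal from cell pellet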
# T2 sequence (P10520 whole entry): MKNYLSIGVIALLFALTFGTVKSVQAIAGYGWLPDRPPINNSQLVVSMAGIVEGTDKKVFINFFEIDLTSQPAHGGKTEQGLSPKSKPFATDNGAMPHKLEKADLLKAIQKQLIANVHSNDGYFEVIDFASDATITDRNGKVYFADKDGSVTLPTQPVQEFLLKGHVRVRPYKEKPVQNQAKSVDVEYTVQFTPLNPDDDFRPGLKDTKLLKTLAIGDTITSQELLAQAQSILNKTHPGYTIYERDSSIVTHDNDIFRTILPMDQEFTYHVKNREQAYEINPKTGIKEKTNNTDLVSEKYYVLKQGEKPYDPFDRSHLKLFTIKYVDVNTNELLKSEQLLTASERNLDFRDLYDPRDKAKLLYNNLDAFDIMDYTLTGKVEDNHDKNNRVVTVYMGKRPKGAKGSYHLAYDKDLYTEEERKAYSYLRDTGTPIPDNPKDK
# Streptococcus = assay: Group A Streptococcus viability loss, dose response, counter-screen for streptokinase expression inhibitor project, luminescence, BacTiterGlo (AID 1915); type: functional, organism-based;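 also: potency for reduction of bacterial viability or growth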
# [10] = test system: Streptococcus sp. 'group A'; assay: growth inhibition of control SK(-) GAS strain, dose response, counter-screen for streptokinase expression inhibitor project, luminescence, kanamycin, BacTiterGlo, confirmation (AID 1900); type: functional, organism-based
# Paired box protein Pax-8 = Paired box protein Pax-8 (Homo sapiens, UniProt Q06710); assay: inhibitors of PAX8-driven TPO luciferase reporter, dose response, RMG-I cells, cherry-pick (AID 687027); type: functional, cell-based;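 also: luciferase reporter driven by Pax8 target thyroperoxidase promoter measured by SteadyGlo luminescence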
# Chain of Paired box protein Pax-8 (Q06710 whole entry): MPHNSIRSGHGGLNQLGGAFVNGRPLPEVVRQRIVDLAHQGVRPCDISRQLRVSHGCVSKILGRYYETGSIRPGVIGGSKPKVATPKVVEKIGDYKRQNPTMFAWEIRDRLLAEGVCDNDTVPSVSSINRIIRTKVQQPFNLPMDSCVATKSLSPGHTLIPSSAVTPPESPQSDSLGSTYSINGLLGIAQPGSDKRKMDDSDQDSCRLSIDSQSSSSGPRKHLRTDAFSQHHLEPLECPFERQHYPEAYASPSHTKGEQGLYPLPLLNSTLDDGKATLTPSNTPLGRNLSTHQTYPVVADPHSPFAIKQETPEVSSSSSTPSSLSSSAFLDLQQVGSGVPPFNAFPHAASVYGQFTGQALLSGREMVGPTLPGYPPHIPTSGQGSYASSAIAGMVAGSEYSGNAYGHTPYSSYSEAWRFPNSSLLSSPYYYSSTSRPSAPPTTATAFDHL
# [11] = Shn3 3'UTR reporter inhibitors, dose response, cell-based, Clone20 osteoblasts, firefly luciferase, cherry-picked (AID 624132); type: functional;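 also: firefly luciferase luminescence from reporter carrying the Shn3 3'UTR in osteoblasts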
# [12] = control 3'UTR Renilla luciferase suppression, dose response, counter-screen for Shn3 inhibitor project, cell-based, Clone20-Shn3RL, cherry-picked (AID 624133); type: functional
# [13] = HepG2 cell cytotoxicity, dose response, cytotoxicity control for Shn3 inhibitor project, CellTiter-Glo, cherry-picked (AID 624134); type: functional, cell-based
# [14] = inhibitors of intracellular T. cruzi replication, confirmation, NIH3T3 host cells, beta-gal luminescence (AID 2044); type: functional, cell-based;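 also: intracellular parasites grown in NIH/3T3 mouse fibroblasts as host cells; luminescent beta-galactosidase reporter signal from transgenic T. cruzi replicating inside host cells; inhibitors lower the luminescence signal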
# [15] = cytotoxicity toward NIH3T3 fibroblasts, dose response, counter-screen, cell-based, ATP luminescence, mouse fibroblasts (AID 2010); type: functional;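 also: cells exposed to compound for about 90 hours before reading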
smiles,measurement,setting,value
CCOC(=O)c1cc2c(N)c(C(=O)c3cc(C#N)c(SC)nc3C)sc2nc1C,EC50,[1],8.22 µM (active)
same,EC50,[2],8.35 µM (active)
Cc1nn(Cc2ccccc2)c(C)c1C(=O)OCC(=O)c1cc(C)n(CC(F)(F)F)c1C,AC50,[3],4.47 µM (active)
same,CC50,[4],> 40 µM (active)
c1csc(-c2ccc3ccccc3n2)c1,IC50,Protein skinhead-1,35.1 µM (active)
CCCn1c(-c2ccc(F)cc2)nc2c(N3CCC(N(C)C)C3)nc(C)nc21 (stereo unspecified),AC50,Cytochrome P450 3A4,15.8 µM (inconclusive)
Cc1cc(NC(=O)C2CC(=O)N(c3cccc(C)c3C)C2)no1 (stereo unspecified),EC50,cells [5],> 350 µM (not active)
same,EC50,cells [6],> 350 µM (not active)
O=C(NCCCN1CCOCC1)c1cc(-c2ccccc2F)no1,EC50,cells [5],113 µM (active)
same,EC50,cells [6],> 350 µM (not active)
CN=C(S)N=Nc1c(O)[nH]c2ccc(C(C)C)cc12,EC50,[1],22.4 µM (active)
same,EC50,[2],17.6 µM (active)
Fc1ccc(-c2csc(-c3ccncc3)n2)cc1,IC50,Protein skinhead-1,10.5 µM (active)
CCC(=O)Nc1cccc(C(=O)/C=C/c2cc(Br)ccc2OC)c1,EC50,[1],1.3 µM (active)
same,EC50,[2],0.933 µM (active)
O=C(CCSc1nnc(-c2ccccc2)o1)N1CCOCC1,IC50,cells [7],20.7 µM (active)
Nc1c(C(=O)Nc2cccc(Cl)c2Cl)sc2nc(-c3cccnc3)ccc12,EC50,[1],5.65 µM (active)
same,EC50,[2],11 µM (active)
CC(C)n1c(NCCc2ccccc2)nc2c1c(=O)n(C)c(=O)n2C,AC50,[8],21.2 µM (active)
same,AC50,[9],17.9 µM (active)
CC(C)(C)Sc1ccc2nc3c(n2c1)CCCC3,AC50,INS1,14.7 µM (active)
same,IC50,cells [7],29 µM (active)
c1ccc(Nc2nc(N3CCCCC3)nc(N3CCNCC3)n2)cc1,EC50,[1],12.7 µM (active)
same,EC50,[2],14.3 µM (active)
same,CC50,[4],23.5 µM (active)
Cc1c(C(=O)N2CCCCC2)c(S(=O)(=O)NCCc2ccc(Cl)cc2)c(C)n1C,EC50,cells [5],> 350 µM (not active)
same,EC50,cells [6],> 350 µM (not active)
O=c1c(O)c(-c2cccs2)oc2ccccc12,EC50,Streptokinase A,> 150 µM (not active)
same,EC50,Streptococcus,> 150 µM (not active)
same,CC50,[4],> 40 µM (active)
same,EC50,[10],3.69 µM (active)
Cc1ccc(C)c(SCC(=O)OCC(=O)N2CC(C)OC(C)C2)c1 (stereo unspecified),EC50,cells [5],> 350 µM (not active)
same,EC50,cells [6],> 350 µM (not active)
COc1ccc(C(=O)Nc2cccc(OC(=O)c3ccc(C)c(C)c3)c2)cc1,IC50,Protein skinhead-1,> 100 µM (inactive)
O=C(NC1CC2CCC1C2)C1COc2ccccc2O1 (stereo unspecified),IC50,cells [7],> 50 µM (active)
Cc1cc(Nc2ccccc2)cc(=O)n1C,EC50,cells [5],> 350 µM (not active)
same,EC50,cells [6],> 350 µM (not active)
Clc1ccc(SCc2cc(-c3ccc(Cl)cc3)on2)cc1,IC50,Protein skinhead-1,> 100 µM (inactive)
O=C(NNc1c(F)c(F)cc(F)c1F)c1cc2ccccc2oc1=O,IC50,cells [7],48 µM (active)
Cc1ccc(NC(=O)Cn2cc(S(=O)(=O)c3ccc(C)cc3)c(=O)c3cc(F)ccc32)cc1,EC50,[1],10.9 µM (active)
same,EC50,[2],9.08 µM (active)
COc1ccccc1/C=C/C1=CC2(C)CC1(C)C(c1ccccc1OC)CC2=O (stereo unspecified),AC50,Cytochrome P450 3A4,3.16 µM (inconclusive)
CCOc1ccc(NC(=O)Nc2cc(OCC(F)(F)F)cc(OCC(F)(F)F)c2)cc1,AC50,Paired box protein Pax-8,8.08 µM (active)
same,EC50,[1],16.9 µM (active)
same,EC50,[2],19.1 µM (active)
Cc1ccc(C)c(-c2nnc(NC(=O)COc3ccccc3)o2)c1,EC50,Streptokinase A,> 150 µM (not active)
same,IC50,cells [7],5.98 µM (active)
same,EC50,Streptococcus,23.1 µM (active)
same,EC50,[10],1.18 µM (active)
CCc1nc2oc3ccccc3c(=O)c2c(=O)n1-c1ccccc1,IC50,Protein skinhead-1,> 100 µM (inactive)
Cc1nc(NC2CCCCC2)c2nc(-c3ccccc3)n(CCN(C)C)c2n1,AC50,Cytochrome P450 3A4,25.1 µM (inconclusive)
COc1ccc(COC(=O)CCNC(=O)c2ccc(Cl)cc2)cc1,IC50,cells [7],> 50 µM (active)
CCc1ccc(C(=O)Nc2ccc3nc(C)ccc3c2)cc1,IC50,Protein skinhead-1,10.1 µM (active)
CN(C)c1ccc(C(=N)c2ccc(N(C)C)cc2)cc1,AC50,Cytochrome P450 3A4,15.8 µM (inconclusive)
O=C(NCc1ccc(Cl)cc1)C1CCN(c2nnc(N3CCCC3=O)s2)CC1,IC50,Protein skinhead-1,> 100 µM (inactive)
COc1ccc(CC(N)c2csc(NC(=O)NC(c3ccccc3)c3ccccc3)n2)cc1 (stereo unspecified),AC50,[11],6.4 µM (active)
same,AC50,[12],19.3 µM (active)
same,AC50,[13],21.1 µM (active)
CC(C)c1ccc(NC(=O)Nc2nc(C(N)COCc3ccccc3)cs2)cc1 (stereo unspecified),AC50,[11],5.99 µM (active)
same,AC50,[12],10.8 µM (active)
same,AC50,[13],18.1 µM (active)
O=C(O)C(Oc1ccc2ccccc2c1)c1ccccc1 (stereo unspecified),IC50,Protein skinhead-1,> 100 µM (inactive)
Cc1cccc(NC(=O)CSc2nc3ccccc3c(=O)n2C)c1C,AC50,[11],2.98 µM (active)
same,AC50,[12],15.2 µM (active)
same,AC50,[13],39 µM (active)
O=C1N=C(N/N=C/c2ccccn2)SC1Cc1cccc(SC(F)F)c1 (stereo unspecified),EC50,[14],0.528 µM (active)
same,EC50,[15],4.95 µM (active)
same,CC50,[4],14.7 µM (active)
COc1ccc(NC(=O)Nc2ccc3c(c2)C(=O)N([C@H](C)CO)C[C@H](C)[C@H](CN(C)S(=O)(=O)c2ccc(OC)cc2)O3)cc1,AC50,[8],2.08 µM (active)
same,AC50,[9],4.67 µM (active)
COC(=O)C1=C(C)N(Cc2ccccc2)[C@]23O[C@](C(=O)OC)(C(=O)N2C1c1ccccc1)C1C(=O)N(C)C(=O)C13 (stereo partly specified),AC50,Cytochrome P450 3A4,2.51 µM (inconclusive) and 3.16 µM (inconclusive)
Cc1cccc(/C=N/NC(=O)c2ccc3c(c2)OCCO3)c1O,EC50,cells [5],66.1 µM (active)
same,AC50,INS1,1.8 µM (active)
same,EC50,cells [6],6.39 µM (active)
same,EC50,Streptococcus,6.82 µM (active)
same,EC50,[10],3.05 µM (active)
Cc1cc(O)cc(=O)o1,AC50,Cytochrome P450 3A4,39.8 µM (inconclusive)
CC(=O)Oc1cc(OC(C)=O)c2c(=O)cc(-c3ccc(OC(C)=O)c(OC(C)=O)c3)oc2c1,AC50,Cytochrome P450 3A4,0.794 µM (inconclusive)
CCCCC(CC)CN=C(N)N=C(N)NCCCCCCNC(N)=NC(N)=NCC(CC)CCCC (stereo unspecified) [ALEXIDINE HYDROCHLORIDE],AC50,INS1,2.26 µM (active)
same,CC50,[4],10.5 µM (active)
CC1(C)[C@@H](O)CC[C@]2(C)[C@H]3C(=O)C=C4[C@@H]5C[C@@](C)(C(=O)O)CC[C@]5(C)CC[C@@]4(C)[C@]3(C)CC[C@@H]12 [ENOXOLONE],AC50,Cytochrome P450 3A4,15.8 µM (inconclusive)
